Assays:
Settings in all cases: Compound concentration 10 µM
[1] = biological target: T1, Alpha-1A adrenergic receptor (Homo sapiens) (UniProt P35348)
T1 sequence (whole entry): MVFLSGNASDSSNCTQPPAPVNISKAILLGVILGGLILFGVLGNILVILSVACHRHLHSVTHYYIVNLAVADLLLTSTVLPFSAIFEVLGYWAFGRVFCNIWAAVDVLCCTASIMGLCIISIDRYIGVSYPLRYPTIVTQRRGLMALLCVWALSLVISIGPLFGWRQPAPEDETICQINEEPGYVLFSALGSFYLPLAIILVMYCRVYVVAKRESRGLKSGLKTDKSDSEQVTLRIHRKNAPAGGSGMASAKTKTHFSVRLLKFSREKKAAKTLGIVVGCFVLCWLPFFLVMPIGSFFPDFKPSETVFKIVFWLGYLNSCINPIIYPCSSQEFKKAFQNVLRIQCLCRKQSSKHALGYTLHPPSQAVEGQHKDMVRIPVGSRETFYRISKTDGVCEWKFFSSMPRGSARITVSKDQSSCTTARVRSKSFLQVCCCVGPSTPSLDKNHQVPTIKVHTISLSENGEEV
Description: PDSP Primary Binding target: ADRA1A - Compounds are tested at 10 uM concentration, plate are incubated at room temperature in the dark for 90 minutes. Reaction are stopped by vacuum filtration onto 0.3% polyethyleneimine soaked filter mats using Filtermate harvester. Scintilation cocktail is then melted onto microwave-dried filters on a hot plate and the radio activity is counted in Microbia counter.

[2] = biological target: 5-hydroxytryptamine receptor 1E (Homo sapiens) (UniProt P28566)
Description: PDSP Primary Binding target: HTR1E - Compounds are tested at 10 uM concentration, plate are incubated at room temperature in the dark for 90 minutes. Reaction are stopped by vacuum filtration onto 0.3% polyethyleneimine soaked filter mats using Filtermate harvester. Scintilation cocktail is then melted onto microwave-dried filters on a hot plate and the radio activity is counted in Microbia counter.

[3] = biological target: Sigma non-opioid intracellular receptor 1 (Homo sapiens) (UniProt Q99720)
Description: PDSP Primary Binding target: SIGMAR1 - Compounds are tested at 10 uM concentration, plate are incubated at room temperature in the dark for 90 minutes. Reaction are stopped by vacuum filtration onto 0.3% polyethyleneimine soaked filter mats using Filtermate harvester. Scintilation cocktail is then melted onto microwave-dried filters on a hot plate and the radio activity is counted in Microbia counter.

[4] = biological target: Mu-type opioid receptor (Homo sapiens) (UniProt P35372)
Description: PDSP Primary Binding target: OPRM1 - Compounds are tested at 10 uM concentration, plate are incubated at room temperature in the dark for 90 minutes. Reaction are stopped by vacuum filtration onto 0.3% polyethyleneimine soaked filter mats using Filtermate harvester. Scintilation cocktail is then melted onto microwave-dried filters on a hot plate and the radio activity is counted in Microbia counter.

[5] = biological target: T2, 5-hydroxytryptamine receptor 2C (Homo sapiens) (UniProt P28335)
T2 sequence (whole entry): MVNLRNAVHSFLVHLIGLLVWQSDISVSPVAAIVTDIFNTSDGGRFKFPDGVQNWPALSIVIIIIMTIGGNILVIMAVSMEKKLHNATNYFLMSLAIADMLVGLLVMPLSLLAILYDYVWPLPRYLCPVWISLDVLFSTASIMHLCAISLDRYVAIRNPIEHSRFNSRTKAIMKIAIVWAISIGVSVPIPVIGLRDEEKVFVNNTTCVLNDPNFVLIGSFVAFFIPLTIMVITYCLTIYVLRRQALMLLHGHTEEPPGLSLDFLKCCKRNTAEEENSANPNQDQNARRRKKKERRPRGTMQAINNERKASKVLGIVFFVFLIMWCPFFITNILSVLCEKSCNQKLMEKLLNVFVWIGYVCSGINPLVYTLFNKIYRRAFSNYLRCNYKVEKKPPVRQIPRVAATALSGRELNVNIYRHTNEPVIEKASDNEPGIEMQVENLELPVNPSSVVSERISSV
Description: PDSP Primary Binding target: HTR2C - Compounds are tested at 10 uM concentration, plate are incubated at room temperature in the dark for 90 minutes. Reaction are stopped by vacuum filtration onto 0.3% polyethyleneimine soaked filter mats using Filtermate harvester. Scintilation cocktail is then melted onto microwave-dried filters on a hot plate and the radio activity is counted in Microbia counter.

[6] = biological target: 5-hydroxytryptamine receptor 7 (Homo sapiens) (UniProt P34969)
Description: PDSP Primary Binding target: HTR7 - Compounds are tested at 10 uM concentration, plate are incubated at room temperature in the dark for 90 minutes. Reaction are stopped by vacuum filtration onto 0.3% polyethyleneimine soaked filter mats using Filtermate harvester. Scintilation cocktail is then melted onto microwave-dried filters on a hot plate and the radio activity is counted in Microbia counter.

[7] = biological target: D(2) dopamine receptor (Homo sapiens) (UniProt P14416)
Description: PDSP Primary Binding target: DRD2 - Compounds are tested at 10 uM concentration, plate are incubated at room temperature in the dark for 90 minutes. Reaction are stopped by vacuum filtration onto 0.3% polyethyleneimine soaked filter mats using Filtermate harvester. Scintilation cocktail is then melted onto microwave-dried filters on a hot plate and the radio activity is counted in Microbia counter.

[8] = biological target: Histamine H3 receptor (Homo sapiens) (UniProt Q9Y5N1)
Description: PDSP Primary Binding target: HRH3 - Compounds are tested at 10 uM concentration, plate are incubated at room temperature in the dark for 90 minutes. Reaction are stopped by vacuum filtration onto 0.3% polyethyleneimine soaked filter mats using Filtermate harvester. Scintilation cocktail is then melted onto microwave-dried filters on a hot plate and the radio activity is counted in Microbia counter.

[9] = biological target: 5-hydroxytryptamine receptor 2B (Homo sapiens) (UniProt P41595)
Description: PDSP Primary Binding target: HTR2B - Compounds are tested at 10 uM concentration, plate are incubated at room temperature in the dark for 90 minutes. Reaction are stopped by vacuum filtration onto 0.3% polyethyleneimine soaked filter mats using Filtermate harvester. Scintilation cocktail is then melted onto microwave-dried filters on a hot plate and the radio activity is counted in Microbia counter.

[10] = biological target: Sigma intracellular receptor 2 (Homo sapiens) (UniProt Q5BJF2)
Description: PDSP Primary Binding target: TMEM97 - Compounds are tested at 10 uM concentration, plate are incubated at room temperature in the dark for 90 minutes. Reaction are stopped by vacuum filtration onto 0.3% polyethyleneimine soaked filter mats using Filtermate harvester. Scintilation cocktail is then melted onto microwave-dried filters on a hot plate and the radio activity is counted in Microbia counter.

[11] = biological target: D(1A) dopamine receptor (Homo sapiens) (UniProt P21728)
Description: PDSP Primary Binding target: DRD1 - Compounds are tested at 10 uM concentration, plate are incubated at room temperature in the dark for 90 minutes. Reaction are stopped by vacuum filtration onto 0.3% polyethyleneimine soaked filter mats using Filtermate harvester. Scintilation cocktail is then melted onto microwave-dried filters on a hot plate and the radio activity is counted in Microbia counter.

[12] = biological target: T3, 5-hydroxytryptamine receptor 1A (Homo sapiens) (UniProt P08908)
T3 sequence (whole entry): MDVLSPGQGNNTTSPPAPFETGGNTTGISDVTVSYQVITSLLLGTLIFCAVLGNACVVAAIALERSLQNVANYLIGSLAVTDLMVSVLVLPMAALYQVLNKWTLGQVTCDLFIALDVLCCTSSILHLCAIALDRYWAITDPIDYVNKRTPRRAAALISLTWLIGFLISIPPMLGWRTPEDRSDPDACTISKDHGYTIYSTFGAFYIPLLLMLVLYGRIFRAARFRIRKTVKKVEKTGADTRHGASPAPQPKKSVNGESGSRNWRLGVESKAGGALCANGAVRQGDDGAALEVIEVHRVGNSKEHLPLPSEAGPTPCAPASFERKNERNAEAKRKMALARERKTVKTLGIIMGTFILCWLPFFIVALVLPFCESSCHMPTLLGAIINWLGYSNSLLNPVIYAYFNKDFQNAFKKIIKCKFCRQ
Description: PDSP Primary Binding target: HTR1A - Compounds are tested at 10 uM concentration, plate are incubated at room temperature in the dark for 90 minutes. Reaction are stopped by vacuum filtration onto 0.3% polyethyleneimine soaked filter mats using Filtermate harvester. Scintilation cocktail is then melted onto microwave-dried filters on a hot plate and the radio activity is counted in Microbia counter.

[13] = biological target: 5-hydroxytryptamine receptor 1B (Homo sapiens) (UniProt P28222)
Description: PDSP Primary Binding target: HTR1B - Compounds are tested at 10 uM concentration, plate are incubated at room temperature in the dark for 90 minutes. Reaction are stopped by vacuum filtration onto 0.3% polyethyleneimine soaked filter mats using Filtermate harvester. Scintilation cocktail is then melted onto microwave-dried filters on a hot plate and the radio activity is counted in Microbia counter.

[14] = biological target: 5-hydroxytryptamine receptor 5A (Homo sapiens) (UniProt P47898)
Description: PDSP Primary Binding target: HTR5A - Compounds are tested at 10 uM concentration, plate are incubated at room temperature in the dark for 90 minutes. Reaction are stopped by vacuum filtration onto 0.3% polyethyleneimine soaked filter mats using Filtermate harvester. Scintilation cocktail is then melted onto microwave-dried filters on a hot plate and the radio activity is counted in Microbia counter.

[15] = biological target: D(3) dopamine receptor (Homo sapiens) (UniProt P35462)
Description: PDSP Primary Binding target: DRD3 - Compounds are tested at 10 uM concentration, plate are incubated at room temperature in the dark for 90 minutes. Reaction are stopped by vacuum filtration onto 0.3% polyethyleneimine soaked filter mats using Filtermate harvester. Scintilation cocktail is then melted onto microwave-dried filters on a hot plate and the radio activity is counted in Microbia counter.

[16] = biological target: Sodium-dependent dopamine transporter (Homo sapiens) (UniProt Q01959)
Description: PDSP Primary Binding target: SLC6A3 - Compounds are tested at 10 uM concentration, plate are incubated at room temperature in the dark for 90 minutes. Reaction are stopped by vacuum filtration onto 0.3% polyethyleneimine soaked filter mats using Filtermate harvester. Scintilation cocktail is then melted onto microwave-dried filters on a hot plate and the radio activity is counted in Microbia counter.

[17] = biological target: 5-hydroxytryptamine receptor 1D (Homo sapiens) (UniProt P28221)
Description: PDSP Primary Binding target: HTR1D - Compounds are tested at 10 uM concentration, plate are incubated at room temperature in the dark for 90 minutes. Reaction are stopped by vacuum filtration onto 0.3% polyethyleneimine soaked filter mats using Filtermate harvester. Scintilation cocktail is then melted onto microwave-dried filters on a hot plate and the radio activity is counted in Microbia counter.

[18] = biological target: T4, Muscarinic acetylcholine receptor M1 (Homo sapiens) (UniProt P11229)
T4 sequence (whole entry): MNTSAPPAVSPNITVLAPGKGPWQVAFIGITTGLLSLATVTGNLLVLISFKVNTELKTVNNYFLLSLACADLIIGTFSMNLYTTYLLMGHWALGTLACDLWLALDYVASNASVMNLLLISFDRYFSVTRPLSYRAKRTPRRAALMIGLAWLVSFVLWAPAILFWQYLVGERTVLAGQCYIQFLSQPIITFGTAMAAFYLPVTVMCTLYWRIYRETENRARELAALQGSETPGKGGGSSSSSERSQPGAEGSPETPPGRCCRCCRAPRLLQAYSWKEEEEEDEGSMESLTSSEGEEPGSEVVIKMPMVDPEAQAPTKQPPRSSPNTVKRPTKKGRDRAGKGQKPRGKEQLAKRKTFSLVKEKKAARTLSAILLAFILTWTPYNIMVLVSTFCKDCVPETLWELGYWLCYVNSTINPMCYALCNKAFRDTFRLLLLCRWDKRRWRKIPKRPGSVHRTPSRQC
Description: PDSP Primary Binding target: CHRM1 - Compounds are tested at 10 uM concentration, plate are incubated at room temperature in the dark for 90 minutes. Reaction are stopped by vacuum filtration onto 0.3% polyethyleneimine soaked filter mats using Filtermate harvester. Scintilation cocktail is then melted onto microwave-dried filters on a hot plate and the radio activity is counted in Microbia counter.

[19] = biological target: 5-hydroxytryptamine receptor 2A (Homo sapiens) (UniProt P28223)
Sequence of 5-hydroxytryptamine receptor 2A (Homo sapiens) (P28223 whole entry): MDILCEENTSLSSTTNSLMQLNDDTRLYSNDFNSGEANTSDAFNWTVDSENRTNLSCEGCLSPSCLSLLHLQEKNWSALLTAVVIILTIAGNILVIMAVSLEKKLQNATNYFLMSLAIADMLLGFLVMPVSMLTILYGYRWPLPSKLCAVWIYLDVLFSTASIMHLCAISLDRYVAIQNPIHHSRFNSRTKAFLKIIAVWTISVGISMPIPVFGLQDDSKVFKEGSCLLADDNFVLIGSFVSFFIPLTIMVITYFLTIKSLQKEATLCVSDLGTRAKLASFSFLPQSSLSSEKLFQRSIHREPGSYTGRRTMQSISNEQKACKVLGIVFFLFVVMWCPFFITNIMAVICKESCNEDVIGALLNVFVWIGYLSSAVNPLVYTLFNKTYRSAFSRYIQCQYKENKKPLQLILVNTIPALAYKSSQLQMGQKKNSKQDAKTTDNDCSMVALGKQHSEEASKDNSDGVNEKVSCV
Description: PDSP Primary Binding target: HTR2A - Compounds are tested at 10 uM concentration, plate are incubated at room temperature in the dark for 90 minutes. Reaction are stopped by vacuum filtration onto 0.3% polyethyleneimine soaked filter mats using Filtermate harvester. Scintilation cocktail is then melted onto microwave-dried filters on a hot plate and the radio activity is counted in Microbia counter.

Sequence of Sigma intracellular receptor 2 (Homo sapiens) (Q5BJF2 whole entry): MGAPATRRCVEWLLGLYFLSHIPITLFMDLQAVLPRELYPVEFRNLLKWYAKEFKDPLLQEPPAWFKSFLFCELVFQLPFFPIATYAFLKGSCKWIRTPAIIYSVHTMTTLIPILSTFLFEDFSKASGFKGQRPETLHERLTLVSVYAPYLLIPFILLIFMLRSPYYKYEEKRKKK
Sequence of D(2) dopamine receptor (Homo sapiens) (P14416 whole entry): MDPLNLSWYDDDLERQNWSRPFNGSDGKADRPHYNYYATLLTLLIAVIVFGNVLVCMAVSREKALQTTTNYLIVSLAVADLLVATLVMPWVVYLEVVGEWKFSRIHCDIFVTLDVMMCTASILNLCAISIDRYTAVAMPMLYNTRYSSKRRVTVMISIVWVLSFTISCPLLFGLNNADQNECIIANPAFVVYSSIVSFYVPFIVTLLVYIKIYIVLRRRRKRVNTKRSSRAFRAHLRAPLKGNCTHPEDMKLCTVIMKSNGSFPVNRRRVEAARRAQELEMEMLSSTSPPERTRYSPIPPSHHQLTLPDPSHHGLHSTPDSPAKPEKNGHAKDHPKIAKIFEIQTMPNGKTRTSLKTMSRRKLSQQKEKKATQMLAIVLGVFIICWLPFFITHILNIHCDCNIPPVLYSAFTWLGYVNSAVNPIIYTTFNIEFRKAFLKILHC
Sequence of 5-hydroxytryptamine receptor 1E (Homo sapiens) (P28566 whole entry): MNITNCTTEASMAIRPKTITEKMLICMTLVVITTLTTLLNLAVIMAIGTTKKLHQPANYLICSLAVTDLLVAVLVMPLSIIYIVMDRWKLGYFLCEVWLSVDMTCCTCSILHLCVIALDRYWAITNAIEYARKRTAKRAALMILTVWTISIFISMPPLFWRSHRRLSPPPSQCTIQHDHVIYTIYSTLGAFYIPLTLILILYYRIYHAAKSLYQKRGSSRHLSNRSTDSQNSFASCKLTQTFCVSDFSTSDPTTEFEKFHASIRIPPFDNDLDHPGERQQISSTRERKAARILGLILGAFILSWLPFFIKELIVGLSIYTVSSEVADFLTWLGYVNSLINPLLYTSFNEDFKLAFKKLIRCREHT
Sequence of Sigma non-opioid intracellular receptor 1 (Homo sapiens) (Q99720 whole entry): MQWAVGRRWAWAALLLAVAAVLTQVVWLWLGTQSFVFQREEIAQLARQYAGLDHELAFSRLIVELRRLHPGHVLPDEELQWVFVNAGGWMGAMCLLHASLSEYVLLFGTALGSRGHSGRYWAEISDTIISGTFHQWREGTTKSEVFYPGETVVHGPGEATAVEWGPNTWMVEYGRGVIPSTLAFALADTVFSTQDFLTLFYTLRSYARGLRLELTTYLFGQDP
Sequence of 5-hydroxytryptamine receptor 1D (Homo sapiens) (P28221 whole entry): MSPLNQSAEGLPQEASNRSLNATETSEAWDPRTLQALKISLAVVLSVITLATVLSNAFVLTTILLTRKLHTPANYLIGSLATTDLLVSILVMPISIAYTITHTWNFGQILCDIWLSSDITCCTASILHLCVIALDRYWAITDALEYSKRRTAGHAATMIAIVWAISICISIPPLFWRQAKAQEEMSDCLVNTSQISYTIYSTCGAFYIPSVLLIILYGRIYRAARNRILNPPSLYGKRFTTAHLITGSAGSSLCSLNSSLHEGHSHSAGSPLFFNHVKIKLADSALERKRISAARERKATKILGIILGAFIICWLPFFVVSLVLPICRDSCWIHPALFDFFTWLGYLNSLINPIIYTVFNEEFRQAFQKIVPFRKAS
Sequence of 5-hydroxytryptamine receptor 2B (Homo sapiens) (P41595 whole entry): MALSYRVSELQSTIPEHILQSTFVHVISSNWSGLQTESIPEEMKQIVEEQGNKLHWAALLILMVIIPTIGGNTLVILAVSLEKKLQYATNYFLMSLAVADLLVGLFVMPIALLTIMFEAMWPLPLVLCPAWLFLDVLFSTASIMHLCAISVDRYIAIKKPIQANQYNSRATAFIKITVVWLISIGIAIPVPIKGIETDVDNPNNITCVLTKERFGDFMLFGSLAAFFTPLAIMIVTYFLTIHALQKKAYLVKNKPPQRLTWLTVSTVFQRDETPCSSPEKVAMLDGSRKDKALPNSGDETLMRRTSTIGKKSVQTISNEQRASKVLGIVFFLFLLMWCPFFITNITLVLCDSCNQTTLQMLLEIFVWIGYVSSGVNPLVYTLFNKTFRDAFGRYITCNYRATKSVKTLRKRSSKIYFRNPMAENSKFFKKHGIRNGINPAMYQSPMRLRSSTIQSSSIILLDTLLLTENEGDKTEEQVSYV
Sequence of D(3) dopamine receptor (Homo sapiens) (P35462 whole entry): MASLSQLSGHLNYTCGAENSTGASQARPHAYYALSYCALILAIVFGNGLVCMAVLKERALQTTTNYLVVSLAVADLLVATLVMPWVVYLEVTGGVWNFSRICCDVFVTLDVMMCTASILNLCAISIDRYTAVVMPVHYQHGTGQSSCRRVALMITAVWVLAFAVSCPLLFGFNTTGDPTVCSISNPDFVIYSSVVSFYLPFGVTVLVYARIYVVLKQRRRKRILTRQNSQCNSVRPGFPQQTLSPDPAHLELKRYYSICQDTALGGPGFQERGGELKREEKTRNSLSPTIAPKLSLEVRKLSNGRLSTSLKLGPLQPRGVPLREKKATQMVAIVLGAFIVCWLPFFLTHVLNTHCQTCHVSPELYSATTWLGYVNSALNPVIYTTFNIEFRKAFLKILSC
Sequence of D(1A) dopamine receptor (Homo sapiens) (P21728 whole entry): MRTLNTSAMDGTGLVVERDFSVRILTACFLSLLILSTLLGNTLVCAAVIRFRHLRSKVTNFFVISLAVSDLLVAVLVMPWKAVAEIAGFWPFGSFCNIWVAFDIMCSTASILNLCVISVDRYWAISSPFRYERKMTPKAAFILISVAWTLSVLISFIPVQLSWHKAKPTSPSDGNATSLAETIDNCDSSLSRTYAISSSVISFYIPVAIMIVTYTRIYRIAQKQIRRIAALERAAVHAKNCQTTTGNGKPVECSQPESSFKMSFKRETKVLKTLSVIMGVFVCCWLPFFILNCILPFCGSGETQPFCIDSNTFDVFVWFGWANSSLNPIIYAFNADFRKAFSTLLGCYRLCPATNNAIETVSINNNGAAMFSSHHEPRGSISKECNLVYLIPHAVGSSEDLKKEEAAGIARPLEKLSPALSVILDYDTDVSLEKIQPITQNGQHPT
Sequence of 5-hydroxytryptamine receptor 1B (Homo sapiens) (P28222 whole entry): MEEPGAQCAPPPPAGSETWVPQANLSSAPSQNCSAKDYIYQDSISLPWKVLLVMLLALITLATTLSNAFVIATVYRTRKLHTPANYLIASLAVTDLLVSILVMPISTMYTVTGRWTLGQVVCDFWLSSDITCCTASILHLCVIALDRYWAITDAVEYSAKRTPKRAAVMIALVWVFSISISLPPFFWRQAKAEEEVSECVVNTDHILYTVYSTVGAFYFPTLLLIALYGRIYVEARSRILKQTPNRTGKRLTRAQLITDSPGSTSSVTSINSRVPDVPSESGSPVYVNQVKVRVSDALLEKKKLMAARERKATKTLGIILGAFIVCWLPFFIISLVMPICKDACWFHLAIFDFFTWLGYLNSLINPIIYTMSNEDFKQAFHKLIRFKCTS
Sequence of Histamine H3 receptor (Homo sapiens) (Q9Y5N1 whole entry): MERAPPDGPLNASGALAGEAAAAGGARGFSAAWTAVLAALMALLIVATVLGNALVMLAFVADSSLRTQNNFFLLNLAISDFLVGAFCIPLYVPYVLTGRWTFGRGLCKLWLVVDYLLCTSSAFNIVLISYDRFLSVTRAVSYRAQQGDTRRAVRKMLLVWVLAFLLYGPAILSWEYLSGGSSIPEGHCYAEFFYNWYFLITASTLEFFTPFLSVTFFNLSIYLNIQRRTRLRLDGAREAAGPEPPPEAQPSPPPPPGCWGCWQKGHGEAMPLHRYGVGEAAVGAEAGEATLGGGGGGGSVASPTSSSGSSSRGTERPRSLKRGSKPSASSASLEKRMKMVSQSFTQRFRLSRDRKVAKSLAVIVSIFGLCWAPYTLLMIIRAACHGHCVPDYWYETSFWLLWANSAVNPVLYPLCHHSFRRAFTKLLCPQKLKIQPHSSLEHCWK
Sequence of Mu-type opioid receptor (Homo sapiens) (P35372 whole entry): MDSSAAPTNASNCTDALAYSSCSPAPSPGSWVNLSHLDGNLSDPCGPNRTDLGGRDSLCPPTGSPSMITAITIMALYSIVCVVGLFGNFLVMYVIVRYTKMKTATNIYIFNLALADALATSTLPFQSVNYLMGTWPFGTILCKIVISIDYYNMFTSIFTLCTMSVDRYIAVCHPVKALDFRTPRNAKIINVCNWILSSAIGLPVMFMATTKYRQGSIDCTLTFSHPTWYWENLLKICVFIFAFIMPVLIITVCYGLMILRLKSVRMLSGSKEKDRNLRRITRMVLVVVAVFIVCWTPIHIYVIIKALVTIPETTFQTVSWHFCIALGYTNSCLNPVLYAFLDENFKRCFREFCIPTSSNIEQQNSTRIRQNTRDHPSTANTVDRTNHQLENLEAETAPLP

Structure (SMILES)	inhibition [1] [%]	inhibition [2] [%]	inhibition [3] [%]	inhibition [4] [%]	inhibition [5] [%]	inhibition [6] [%]	inhibition [7] [%]	inhibition [8] [%]	inhibition [9] [%]	inhibition [10] [%]	inhibition [11] [%]	inhibition [12] [%]	inhibition [13] [%]	inhibition [14] [%]	inhibition [15] [%]	inhibition [16] [%]	inhibition [17] [%]	inhibition [18] [%]	inhibition [19] [%]
COc1cc2nc(N3CCN(C(=O)c4ccco4)CC3)nc(N)c2cc1OC	98.7	2.33	68	50	3.9	23.8	49.2	8.21	54.3	27.6	22.2	8.03	27.2	83.4	37.6	29.4	–	–	–
Clc1cccc(Cl)c1NC1=NCCN1	69	9.4	–	3.84	55.7	77.2	–	–	93.8	66.3	–	8	13.1	20.1	19.4	20.8	29.5	–	–
CC(C)Oc1ccccc1C(=O)Nc1ccccc1C(=O)Nc1cccc(S(=O)(=O)C(F)(F)F)c1	-8.65	-4.72	–	-7.51	11.3	-3.5	7.06	-5.72	–	-6.23	–	6.76	–	–	23.1	–	–	-6.91	87.8
CC(C)NCC(O)COc1cccc2[nH]ccc12 (centres undefined)	32	20	38.7	16.8	7.77	37.8	30.5	–	39.4	97.5	29.3	94.1	22	52.6	65.4	21.3	50.9	–	–
COc1ccc2[nH]cc(CCNC(C)=O)c2c1	-4.46	–	29.1	–	–	-7.65	32.8	-7.94	49.5	22.1	13.1	5.08	12.5	–	-7.6	29.5	17.3	–	–
COc1ccc2cc(S(=O)(=O)N[C@H](CC(=O)N[C@H](Cc3ccc(CN4[C@H](C)CCC[C@@H]4C)cc3)C(=O)N(C)C(C)C)c3ccc4c(c3)OCO4)ccc2c1	3.26	–	102	40	19.7	-0.02	2.14	62.1	27.5	97.7	11.7	-7.48	31.1	20.3	26	36.8	–	44.5	28.8
CCCn1c(=O)c2nc(C34CC5CC(CC3C5)C4)[nH]c2n(CCC)c1=O	–	14.2	32.7	9.1	-0.12	5.98	–	-9.29	43.5	39.6	–	-4.72	19.3	–	-4.54	50	23.4	–	-7.63
Brc1c(NC2=NCCN2)ccc2nccnc12	34	–	–	0.59	6.61	69.9	12.5	–	22.7	66.9	–	-4.03	7.31	–	29.2	-6.87	49.5	–	–
COc1cccc(-c2c(C)n(Cc3c(F)cccc3C(F)(F)F)c(=O)n(C[C@H](NCCCC(=O)O)c3ccccc3)c2=O)c1F	7.84	11.7	2.12	11.9	1.76	34.2	30.2	–	-6.96	–	-9.59	-2.18	15.5	35.8	21.6	–	–	26.2	-2.02
COC(=O)[C@H]1[C@H]2C[C@H]3c4[nH]c5ccccc5c4CCN3C[C@H]2CC[C@@H]1O	66.2	96	63.2	28.7	2.54	85.2	49.4	7.16	94.3	22.8	32.4	1.62	98.4	48.2	31	6.37	–	–	–
CC(C)(C(=O)O)c1ccc(C(O)CCCN2CCC(C(O)(c3ccccc3)c3ccccc3)CC2)cc1 (centres undefined)	–	-8.04	35.9	–	-8.36	4.24	65.8	-3.95	67.8	39.2	28.9	-5.94	8.43	–	53	21.9	39.8	–	–
CCc1nn2c(C)cc(C)nc2c1Cc1ccc(-c2nnc(C3CCNCC3)o2)cc1	-9.75	12.6	52.4	50.7	10.1	5.87	-9.55	-8.3	9.86	80.3	–	-1.59	16.6	3.02	-9.36	4.13	14.8	–	-2.43
CNC[C@H](O)c1ccc(O)c(O)c1	6.21	-5.3	–	-2.25	–	-8.3	15.9	–	1.88	12.3	10.9	-3.44	11.1	-0.93	47.1	32.7	15.8	–	–

Reference: ChEMBL document CHEMBL5442219
